Data from the NIST ThermoML archive (doi:10.1016/j.tca.2014.11.009).

Test: xn = mol fraction of the nth substance listed
Details: 100 kPa, Liquid; for speed of sound: Frequency=3 MHz, Sing-around technique in a fixed-path interferometer; for mass density: Vibrating tube method

O=Cc1ccco1 [2-furaldehyde] + CCC(C)O
Details | mass density, 283.15 K [kg/m3] | mass density, 293.15 K [kg/m3] | mass density, 303.15 K [kg/m3] | mass density, 313.15 K [kg/m3] | speed of sound, 283.15 K [m/s] | speed of sound, 293.15 K [m/s] | speed of sound, 303.15 K [m/s] | speed of sound, 313.15 K [m/s]
x1 = 0.0501 | 831.27 | 822.97 | 814.4 | 805.5 | 1279.1 | 1242.7 | 1206.1 | 1169.4
x1 = 0.1001 | 847.35 | 838.83 | 830.06 | 820.99 | 1289.1 | 1252.7 | 1216.1 | 1179.5
x1 = 0.1507 | 863.92 | 855.21 | 846.24 | 837.01 | 1299.3 | 1263.1 | 1226.6 | 1190
x1 = 0.2001 | 880.27 | 871.37 | 862.24 | 852.86 | 1309.5 | 1273.3 | 1236.9 | 1200.5
x1 = 0.3001 | 913.96 | 904.72 | 895.3 | 885.68 | 1330.4 | 1294.4 | 1258.3 | 1222.1
x1 = 0.3501 | 931.13 | 921.74 | 912.18 | 902.46 | 1341.2 | 1305.4 | 1269.3 | 1233.2
x1 = 0.4001 | 948.49 | 938.98 | 929.33 | 919.51 | 1352 | 1316.4 | 1280.4 | 1244.1
x1 = 0.4501 | 966.01 | 956.37 | 946.59 | 936.66 | 1363.4 | 1327.8 | 1291.9 | 1256
x1 = 0.5 | 983.65 | 973.9 | 964.03 | 954.03 | 1375.1 | 1339.4 | 1303.5 | 1267.6
x1 = 0.55 | 1001.41 | 991.58 | 981.69 | 971.7 | 1387.3 | 1351.4 | 1315.5 | 1279.6
x1 = 0.6 | 1019.4 | 1009.48 | 999.51 | 989.44 | 1399.4 | 1363.4 | 1327.4 | 1291.5
x1 = 0.6501 | 1037.63 | 1027.6 | 1017.53 | 1007.37 | 1411.8 | 1375.7 | 1339.6 | 1303.6
x1 = 0.8001 | 1093.43 | 1083.14 | 1072.78 | 1062.25 | 1448.5 | 1412 | 1375.6 | 1339.5
x1 = 0.8999 | 1131.48 | 1121 | 1110.45 | 1099.81 | 1472.1 | 1435.7 | 1399.2 | 1363.1
x1 = 1 | 1169.93 | 1159.33 | 1148.69 | 1138.01 | 1495.4 | 1458.8 | 1422.5 | 1386.5

O=Cc1ccco1 [2-furaldehyde] + CCCCO
Details | mass density, 283.15 K [kg/m3] | mass density, 293.15 K [kg/m3] | mass density, 303.15 K [kg/m3] | mass density, 313.15 K [kg/m3] | speed of sound, 283.15 K [m/s] | speed of sound, 293.15 K [m/s] | speed of sound, 303.15 K [m/s] | speed of sound, 313.15 K [m/s]
x1 = 0.0501 | 833.74 | 825.93 | 818 | 809.97 | 1301.8 | 1267.2 | 1233 | 1199.2
x1 = 0.1 | 850.14 | 842.12 | 833.98 | 825.71 | 1310.6 | 1275.9 | 1241.6 | 1207.7
x1 = 0.15 | 866.88 | 858.65 | 850.29 | 841.84 | 1319.6 | 1285 | 1250.5 | 1216.4
x1 = 0.1999 | 883.58 | 875.14 | 866.67 | 858.15 | 1328.7 | 1293.9 | 1259.3 | 1225.2
x1 = 0.2499 | 900.71 | 892.12 | 883.46 | 874.76 | 1337.3 | 1302.9 | 1268.4 | 1234.2
x1 = 0.3 | 917.89 | 909.1 | 900.31 | 891.55 | 1346.9 | 1312.1 | 1277.6 | 1243.3
x1 = 0.4 | 953.02 | 943.94 | 934.84 | 925.74 | 1365.5 | 1330.9 | 1296.4 | 1262.1
x1 = 0.45 | 970.58 | 961.33 | 952.08 | 942.85 | 1375.2 | 1340.7 | 1306.1 | 1271.7
x1 = 0.5 | 988.52 | 979.14 | 969.78 | 960.42 | 1385.7 | 1351 | 1316.3 | 1281.9
x1 = 0.5473 | 1005.5 | 995.94 | 986.39 | 976.86 | 1395.8 | 1361 | 1326.2 | 1291.7
x1 = 0.6999 | 1060.86 | 1050.92 | 1041.03 | 1031.18 | 1429.8 | 1394.6 | 1359.3 | 1324.3
x1 = 0.8 | 1097.24 | 1087.06 | 1076.9 | 1066.74 | 1452.2 | 1416.4 | 1380.7 | 1345.3
x1 = 0.8497 | 1115.11 | 1104.87 | 1094.66 | 1084.43 | 1463.1 | 1427.1 | 1391.3 | 1355.7
x1 = 0.8999 | 1133.5 | 1123.12 | 1112.74 | 1102.3 | 1474.2 | 1438.1 | 1401.9 | 1366.2
x1 = 1 | 1169.93 | 1159.33 | 1148.69 | 1138.01 | 1495.4 | 1458.8 | 1422.5 | 1386.5

O=Cc1ccco1 [2-furaldehyde] + CCO
Details | mass density, 283.15 K [kg/m3] | mass density, 293.15 K [kg/m3] | mass density, 303.15 K [kg/m3] | mass density, 313.15 K [kg/m3] | speed of sound, 283.15 K [m/s] | speed of sound, 293.15 K [m/s] | speed of sound, 303.15 K [m/s] | speed of sound, 313.15 K [m/s]
x1 = 0.0486 | 825.34 | 816.58 | 807.7 | 798.67 | 1221.8 | 1187.2 | 1152.6 | 1118.5
x1 = 0.0995 | 852.29 | 843.29 | 834.16 | 824.83 | 1245.2 | 1210.4 | 1175.6 | 1141.2
x1 = 0.15 | 877.44 | 868.21 | 858.83 | 849.37 | 1265.6 | 1230.5 | 1195.7 | 1161.2
x1 = 0.2 | 901.29 | 891.88 | 882.29 | 872.64 | 1284.6 | 1249.7 | 1214.8 | 1180.2
x1 = 0.25 | 924.5 | 914.91 | 905.24 | 895.34 | 1302.7 | 1267.7 | 1232.8 | 1198.2
x1 = 0.3001 | 946.91 | 937.18 | 927.3 | 917.42 | 1320.2 | 1285.2 | 1250.3 | 1215.7
x1 = 0.4501 | 1007.43 | 997.35 | 987.26 | 977.03 | 1367.1 | 1331.9 | 1296.9 | 1262.3
x1 = 0.6501 | 1076.56 | 1066.08 | 1055.65 | 1045.07 | 1421.3 | 1385.7 | 1350.4 | 1315.4
x1 = 0.7007 | 1091.79 | 1081.25 | 1070.76 | 1060.22 | 1433.5 | 1398 | 1362.5 | 1327.2
x1 = 0.7498 | 1105.77 | 1095.26 | 1084.63 | 1074.13 | 1444.7 | 1409.1 | 1373.4 | 1338
x1 = 0.8003 | 1119.65 | 1109.04 | 1098.47 | 1087.81 | 1455.7 | 1419.9 | 1384.2 | 1348.8
x1 = 0.8503 | 1132.81 | 1122.12 | 1111.5 | 1100.88 | 1466.4 | 1430.6 | 1394.6 | 1358.8
x1 = 0.9004 | 1145.37 | 1134.68 | 1124.08 | 1113.48 | 1476.6 | 1440.3 | 1404.2 | 1368.5
x1 = 0.9498 | 1157.85 | 1147.23 | 1136.49 | 1125.72 | 1486.3 | 1450.1 | 1413.8 | 1377.8
x1 = 1 | 1169.93 | 1159.33 | 1148.69 | 1138.01 | 1495.4 | 1458.8 | 1422.5 | 1386.5
